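Tested at 5 concentrations; 48 h exposure; 96-well plates; endpoints linearly interpolated, else capped at highest concentration. At the GI50, growth is halved. TGI: concentration producing complete growth inhibition.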
Columns and labels:
Assay in all cases: NCI anticancer screen, dose series, 48 h
MALME-3M melanoma = test system: MALME-3M melanoma
RXF 393 renal = test system: RXF 393 renal
IGROV1 ovarian = test system: IGROV1 ovarian
HOP-92 NSCLC = test system: HOP-92 NSCLC
K-562 leukemia = test system: K-562 leukemia
EKVX NSCLC = test system: EKVX NSCLC
SR leukemia = test system: SR leukemia
SN12C renal = test system: SN12C renal
HOP-62 NSCLC = test system: HOP-62 NSCLC
HT29 colon = test system: HT29 colon
HCC-2998 colon = test system: HCC-2998 colon
HS 578T breast = test system: HS 578T breast
NCI-H460 lung = test system: NCI-H460 lung
SK-MEL-28 melanoma = test system: SK-MEL-28 melanoma
NCI/ADR-RES ovarian = test system: NCI/ADR-RES ovarian
MCF7 breast = test system: MCF7 breast
OVCAR-3 ovarian = test system: OVCAR-3 ovarian
CCRF-CEM leukemia = test system: CCRF-CEM leukemia
SNB-75 CNS = test system: SNB-75 CNS
MDA-MB-231 breast = test system: MDA-MB-231 breast
SNB-19 CNS = test system: SNB-19 CNS
SK-MEL-5 melanoma = test system: SK-MEL-5 melanoma
M14 melanoma = test system: M14 melanoma
U251 CNS = test system: U251 CNS
OVCAR-4 ovarian = test system: OVCAR-4 ovarian
BT-549 breast = test system: BT-549 breast
MOLT-4 leukemia = test system: MOLT-4 leukemia

Compound `Clc1cccc(/C=N/Nc2nc(N/N=C/c3cccc(Cl)c3)nc(N3CCOCC3)n2)c1` has a GI50 (MALME-3M melanoma) of 2.86 µM, a TGI (MALME-3M melanoma) of 5.57 µM and a GI50 (RXF 393 renal) of 1 µM. For the same compound, the TGI (RXF 393 renal) was 3.51 µM, the GI50 (IGROV1 ovarian) was 4.61 µM and the TGI (IGROV1 ovarian) was over 100 µM. For the same compound, the GI50 (HOP-92 NSCLC) was 2.17 µM, the TGI (HOP-92 NSCLC) was over 100 µM and the GI50 (K-562 leukemia) was 0.699 µM. It also gave a TGI (K-562 leukemia) of 7.65 µM, a GI50 (EKVX NSCLC) of 4.23 µM and a TGI (EKVX NSCLC) of over 100 µM. The GI50 (SR leukemia) was 0.329 µM, the TGI (SR leukemia) was 2.58 µM and the GI50 (SN12C renal) was 4.99 µM. It also gave a TGI (SN12C renal) of over 100 µM, a GI50 (HOP-62 NSCLC) of 4.67 µM and a TGI (HOP-62 NSCLC) of over 100 µM. It also gave a GI50 (HT29 colon) of 1.34 µM, a TGI (HT29 colon) of over 100 µM and a GI50 (HCC-2998 colon) of 2.73 µM. The TGI (HCC-2998 colon) was over 100 µM, the GI50 (HS 578T breast) was 3.76 µM and the TGI (HS 578T breast) was over 100 µM. It also gave a GI50 (NCI-H460 lung) of 3.47 µM, a TGI (NCI-H460 lung) of over 100 µM and a GI50 (SK-MEL-28 melanoma) of 2.86 µM. It also gave a TGI (SK-MEL-28 melanoma) of 7.74 µM, a GI50 (NCI/ADR-RES ovarian) of 3.39 µM and a TGI (NCI/ADR-RES ovarian) of over 100 µM. For the same compound, the GI50 (MCF7 breast) was 2.47 µM, the TGI (MCF7 breast) was over 100 µM and the GI50 (OVCAR-3 ovarian) was 2.87 µM. For the same compound, the TGI (OVCAR-3 ovarian) was 59.9 µM, the GI50 (CCRF-CEM leukemia) was 1.34 µM and the TGI (CCRF-CEM leukemia) was 6.6 µM. The GI50 (SNB-75 CNS) was 3.33 µM, the TGI (SNB-75 CNS) was over 100 µM and the GI50 (MDA-MB-231 breast) was 9.16 µM. The TGI (MDA-MB-231 breast) was over 100 µM, the GI50 (SNB-19 CNS) was 37 µM and the TGI (SNB-19 CNS) was over 100 µM. It also gave a GI50 (SK-MEL-5 melanoma) of 1.72 µM, a TGI (SK-MEL-5 melanoma) of 3.44 µM and a GI50 (M14 melanoma) of 3.08 µM. It also gave a TGI (M14 melanoma) of over 100 µM, a GI50 (U251 CNS) of 3.49 µM and a TGI (U251 CNS) of over 100 µM. It also gave a GI50 (OVCAR-4 ovarian) of 5.82 µM, a TGI (OVCAR-4 ovarian) of over 100 µM and a GI50 (BT-549 breast) of 3.22 µM. For the same compound, the TGI (BT-549 breast) was over 100 µM, the GI50 (MOLT-4 leukemia) was 1.49 µM and the TGI (MOLT-4 leukemia) was 4.4 µM.
